Test results reported in patent US4421767A, “Compounds and methods for treating depression” (priority 1982, dated 1983).
Read-outs that look alike come from different tables or passages of the source.

Tests used:
[1] = system: MAO; conditions: literature; cited from earlier work
[2] = system: depression; conditions: literature; cited from earlier work
[3] = system: cheese effect; conditions: low dosages where preferential inhibition of MAO-B occurs; cited from earlier work
[4] = system: MAO; test: In vitro MAO inhibition; assay type: biochemical
[5] = system: neuronal MAO; test: Ex vivo MAO activity after i.p. injection in rats, neuronal MAO; parameters: species or system rat; conditions: AFMBA 100 mg/kg i.p., 18 hours
Protocol: (§1) Rats were injected with AFHBA (0.5 mg/kg, i.p.) alone or with AFHBA (0.5 mg/kg, i.p.) in combination with MFMD (2.0 mg/kg, i.p.) administered 30 minutes before AFHBA. Animals were killed 18 hours later and MAO activity (5-HT and phenethylamine as substrates) was determined in brain, heart, and liver. In the brain, AFHBA administered alone inhibited neuronal MAO by 72% and non-neuronal MAO by 37%.
(§2) III. Rats were injected with AFMBA (100 mg/kg, i.p.) and were killed 18 hours later. MAO activity was determined in the brain, heart, and liver using 5-HT and PEA.

[6] = system: non-neuronal MAO; test: Ex vivo MAO activity after i.p. injection in rats, non-neuronal MAO; parameters: species or system rat; conditions: AFMBA 100 mg/kg i.p., 18 hours
Protocol: as §1, §2

[7] = system: MAO; test: Ex vivo MAO activity in rats, protection by extracerebral AADC inhibitor; parameters: species or system rat; conditions: carbidopa 50 mg/kg i.p. with AFHBA, compared with MFMD 2.0 mg/kg i.p., heart
Protocol: as §1
MAO activity was determined in the brain using 5-HT and phenethylamine (PEA) as substrates.

[8] = system: brain noradrenaline and 5-HT concentrations; test: Brain amine concentration, AFHBA with or without carbidopa pretreatment in rats (Table II); assay type: in vivo, rat; conditions: for Brain Amine Concentration, 5-HT / Brain Amine Concentration, Noradrenaline: 5 days
Protocol: (§3) (B) Rats were gavaged with saline or carbidopa given at dosage of 10 or 100 mg/kg. Thirty minutes later, the rats were gavaged with saline or AFHBA given at a dosage of 62.5 μg/kg. This treatment was repeated daily for 5 days. On the 6th day, the rats were anaesthetized and heart rate and blood pressure responses to tyramine (0.3-50 mg/kg, i.d.) were determined. Additionally, monoamines and MAO activity were determined in various tissues, including brain.

[9] = system: heart rate and blood pressure responses to tyramine; assay type: in vivo, rat; conditions: for Tyramine Potentiation: 5 days, tyramine i.d.
Protocol: as §3

[10] = system: MAO-B; conditions: literature; cited from earlier work
[11] = system: brain noradrenaline and 5-HT concentrations; test: Brain amine concentration after 5 days oral MAO inhibitor in rats (Table I); assay type: in vivo, rat; conditions: for Brain Amine Concentration, 5-HT / Brain Amine Concentration, Noradrenaline: 5 days
Protocol: On the 6th day, rats were anaesthetized and heart rate and blood pressure responses to tyramine (0.3-50 mg/kg) administered intraduodenally (i.d.) were determined. Additionally, monoamines and MAO activity were determined in various tissues including brain.

[12] = system: heart rate and blood pressure responses to tyramine; test: Potentiation of tyramine response after 5 days oral MAO inhibitor in rats (Table I); assay type: in vivo, rat; conditions: for Tyramine Potentiation: 5 days, tyramine i.d.
Protocol: (A) Rats were gavaged daily for 5 days with saline or 2-amino-4-fluoro-3-(3'-hydroxyphenyl)-3-butenoic acid (AFHBA) at dosages of 15.6, 62.5, 250, or 1000 μg/kg or with clorgyline at dosages of 1250 or 5000 μg/kg. On the 6th day, rats were anaesthetized and heart rate and blood pressure responses to tyramine (0.3-50 mg/kg) administered intraduodenally (i.d.) were determined. Additionally, monoamines and MAO activity were determined in various tissues including brain.

[13] = system: MAO-A; conditions: literature; cited from earlier work
[14] = carbidopa alone 10000 μg/kg daily p.o.
[15] = carbidopa alone 100000 μg/kg daily p.o.
[16] = Clorgyline 1250 μg/kg daily p.o.
[17] = Clorgyline 5000 μg/kg daily p.o.

N[C@@H]1C[C@H]1c1ccccc1 (relative stereo) [tranylcypromine]
preference of action upon MAO [1]: not preferential in their action upon MAO

C#CCN(C)[C@H](C)Cc1ccccc1 [L-deprenyl]
clinical antidepressant effect [2]: clinically effective antidepressant agents
cheese effect [3]: not observed

NCC(=CF)c1cccc(O)c1 [2-(3'-hydroxy)phenyl-3-fluoroallylamine]
MAO inhibition type [4]: time-dependent irreversible inhibitor
IC50 ([4]; unit inferred): ~1 nM

COc1ccc(C(=CF)C(N)C(=O)O)cc1O (centres unmarked) [AFMBA, 2-amino-4-fluoro-3-(3'-hydroxy-4-methoxyphenyl)-3-butenoic acid]
% Inhibition of MAO, Neuronal ([5]; brain): 16%
% Inhibition of MAO, Neuronal ([5]; heart): 18%
% Inhibition of MAO, Neuronal ([5]; liver): 2%
% Inhibition of MAO, Non-neuronal ([6]; brain): 40%
% Inhibition of MAO, Non-neuronal ([6]; heart): 46%
% Inhibition of MAO, Non-neuronal ([6]; liver): 11%

C[C@@](Cc1ccc(O)c(O)c1)(NN)C(=O)O [Carbidopa, reference compound]
protective effect against inhibition of MAO in the heart [7]: same protective effect against inhibition of MAO in the heart as MFMD
elevation of brain monoamines on coadministration with AFHBA ([8]; carbidopa 10 mg/kg + AFHBA 62.5 μg/kg): significantly enhanced the elevation of brain monoamines
effectiveness of AFHBA to raise brain monoamines on coadministration ([8]; carbidopa 100 mg/kg + AFHBA): reduced the effectiveness of AFHBA to raise brain monoamines
Brain Amine Concentration, 5-HT [8, 14]: 599 ± 31 ng/g
Brain Amine Concentration, Noradrenaline [8, 14]: 366 ± 3 ng/g
Brain Amine Concentration, 5-HT [8, 15]: 443 ± 19 ng/g
Brain Amine Concentration, Noradrenaline [8, 15]: 271 ± 19 ng/g
effect on tyramine response ([9]; carbidopa alone 10 mg/kg): no effect on tyramine response
Tyramine Potentiation [9, 14]: 1.1
Tyramine Potentiation [9, 15]: 2.3
effect on tyramine response ([9]; carbidopa alone 100 mg/kg): potentiated the tyramine response

Cc1cc(C(=O)NNCc2ccccc2)no1 [isocarboxazid]
preference of action upon MAO [1]: not preferential in their action upon MAO

C#CCN(C)Cc1ccccc1 [pargyline]
preferential inhibition of MAO-B [10]: preferentially inhibited
selectivity at lower versus higher dosages [1]: selective inhibitors at lower dosages, but are not selective inhibitors at higher dosages
clinical antidepressant effect [2]: clinically effective antidepressant agents

NNCCc1ccccc1 [phenelzine]
preference of action upon MAO [1]: not preferential in their action upon MAO

C#CCN(C)CCCOc1ccc(Cl)cc1Cl [Clorgyline, reference compound]
Brain Amine Concentration, 5-HT [11, 16]: 620 ± 34 ng/g
Brain Amine Concentration, Noradrenaline [11, 16]: 351 ± 11 ng/g
Brain Amine Concentration, 5-HT [11, 17]: 1027 ± 82 ng/g
Brain Amine Concentration, Noradrenaline [11, 17]: 329 ± 19 ng/g
brain noradrenaline and 5-HT concentrations (dose relation) ([11]; subacute treatment): dose-related increases in brain noradrenaline and 5-HT concentrations
Tyramine Potentiation ([12]; Clorgyline 1250 μg/kg daily p.o., some potentiation at lowest doses of tyramine (footnote c)): 1.0
Tyramine Potentiation [12, 17]: 5.0
potentiation of the tyramine response (dose relation) ([12]; subacute treatment): potentiation of the tyramine response
preferential inhibition of MAO-A [13]: preferentially inhibited
selectivity at lower versus higher dosages [1]: selective inhibitors at lower dosages, but are not selective inhibitors at higher dosages
clinical antidepressant effect [2]: clinically effective antidepressant agents
